Experimental data reported in patent US8415359B2, “Phenylpyrrole derivative” (Daiichi Sankyo Company, Limited, priority 2008, dated 2013).

Biological target: T1, human pancreatic GK (human glucokinase variant 1, GST-fused protein) (Homo sapiens, UniProt P35557)
T1 construct: made in house; host or cells: Escherichia coli (such as BL21 or JM109)
T1 sequence (P35557 1-465): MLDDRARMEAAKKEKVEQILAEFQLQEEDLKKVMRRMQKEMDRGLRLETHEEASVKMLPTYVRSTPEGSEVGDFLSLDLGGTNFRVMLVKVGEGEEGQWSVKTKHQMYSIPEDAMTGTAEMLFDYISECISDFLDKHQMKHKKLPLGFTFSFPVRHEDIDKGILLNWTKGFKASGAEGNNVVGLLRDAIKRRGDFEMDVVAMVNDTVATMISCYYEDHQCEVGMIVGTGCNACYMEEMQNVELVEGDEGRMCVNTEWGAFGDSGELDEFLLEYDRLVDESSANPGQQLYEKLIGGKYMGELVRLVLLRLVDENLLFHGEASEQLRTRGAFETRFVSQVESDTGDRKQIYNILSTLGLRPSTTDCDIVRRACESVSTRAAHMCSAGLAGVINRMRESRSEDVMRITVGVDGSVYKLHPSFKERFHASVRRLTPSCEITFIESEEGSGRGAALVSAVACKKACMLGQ
Assay: GK activity test (GK activation rate)
Assay type: biochemical
Details: test compound 1 μM; glucose 5 mM; 30 min at room temperature; absorbance at 340 nm with test compound / without test compound
Experimental: cDNA encoding human pancreatic GK polypeptide (GenBank Accession No. NM_000162, human glucokinase variant 1) was cloned from a human cDNA library by polymerase chain reaction (PCR), and introduced into a glutathione S-transferase (GST)-fused protein expression vector (GEX4T, GE Healthcare Bioscience). The vector was introduced into Escherichia coli (such as BL21 or JM109, Invitrogen), and the transformed E. coli was cultured overnight at 37° C. followed by recovery of the cells. After freezing and thawing the recovered cells, the cells were suspended in phosphate buffer containing Triton-X at a final concentration of 1% followed by disrupting the cells with an ultrasonic homogenizer. The supernatant obtained by low-speed centrifugation treatment of the homogenate (10,000×g, 30 minutes) was further subjected to high-speed centrifugation (100,000×g, 10 minutes) followed by recovering the supernatant and purifying the fused protein using a GST fused protein purification system (Bulk GST Purification Module, GE Healthcare Bioscience). The GK fused protein was divided into smaller aliquots and stored at −80° C.
GK activity was measured using the GK purified in (1) above. More specifically, an enzyme solution was prepared by adding the purified GK of (1) above and glucose-6-phosphate dehydrogenase (Sigma) to solution 1 of a glucose assay kit (D-Glucose UV Method, Roche Diagnostics). The enzyme solution, a test compound diluent and glucose (final concentration: 5 mM) were mixed in a 96-well ELISA plate, and allowed to react for 30 minutes at room temperature. Following completion of the reaction, absorbance at a wavelength of 340 nm was measured using SpectraMax Plus (Molecular Probe). Furthermore, unreacted (when glucose was not added) absorbance was used for the background.
GK activation rates were indicated with values represented by the following numerical formula: (absorbance after reacting for 30 minutes when test compound added)/(absorbance after reacting for 30 minutes when test compound not added).

SMILES | GK Activation Rate
CNC(=O)c1ccc(Oc2cc(O[C@@H](C)CO)cc(-c3ccc(C4=NC[C@H](C)O4)[nH]3)c2)cn1 [Example 123, 5-(3-[(1S)-2-Hydroxy-1-methylethoxy]-5-{5-[(5S)-5-methyl-4,5-dihydro-1,3-oxazol-2-yl]-1H-pyrrol-2-yl}phenoxy)-N-methylpyridine-2-carboxamide] | 2.6
C[C@@H]1COC(c2ccc(-c3cc(Oc4ccc(S(C)(=O)=O)nc4)cc(O[C@@H](C)CO)c3)[nH]2)=N1 [Example 84, (2S)-2-(3-{5-[(4R)-4-Methyl-4,5-dihydro-1,3-oxazol-2-yl]-1H-pyrrol-2-yl}-5-{-[6-(methylsulfonyl)pyridin-3-yl]oxy}phenoxy)propan-1-ol] | 2.7
Cc1nnc(-c2ccc(-c3cc(Oc4cnc(S(C)(=O)=O)cn4)cc(O[C@@H](C)CO)c3)[nH]2)o1 [Example 98, (2S)-2-(3-[5-(5-Methyl-1,3,4-oxadiazol-2-yl)-1H-pyrrol-2-yl]-5-{[5-(methylsulfonyl)pyrazin-2-yl]oxy}phenoxy)propan-1-ol] | 1.9
C[C@H]1CN=C(c2ccc(-c3cc(Oc4cnc(S(C)(=O)=O)cn4)cc(O[C@@H](C)CO)c3)[nH]2)O1 [Example 100, (2S)-2-(3-{5-[(5S)-5-Methyl-4,5-dihydro-1,3-oxazol-2-yl]-1H-pyrrol-2-yl}-5-{[5-(methylsulfonyl)pyrazin-2-yl]oxy}phenoxy)propan-1-ol] | 1.9
CNC(=O)c1ccc(Oc2cc(O[C@@H](C)COC)cc(-c3ccc(C4=NC[C@H](CO)O4)[nH]3)c2)cn1 [Example 126, 5-(3-{5-[(5R)-5-(Hydroxymethyl)-4,5-dihydro-1,3-oxazol-2-yl]-1H-pyrrol-2-yl}-5-[(1S)-2-methoxy-1-methylethoxy]phenoxy)-N-methylpyridine-2-carboxamide] | 2.6
CNS(=O)(=O)c1ccc(Oc2cc(O[C@@H](C)CO)cc(-c3ccc(C4=NC[C@H](C)O4)[nH]3)c2)cn1 [Example 122, 5-(3-[(1S)-2-Hydroxy-1-methylethoxy]-5-{5-[(5S)-5-methyl-4,5-dihydro-1,3-oxazol-2-yl]-1H-pyrrol-2-yl}phenoxy)-N-methylpyridine-2-sulfonamide] | 2.5
COC[C@H](C)Oc1cc(Oc2ccc(C(=O)N3CCCC3)cc2F)cc(-c2ccc(-c3nccs3)[nH]2)c1 [Example 47, 2-(5-{3-[2-Fluoro-4-(pyrrolidin-1-ylcarbonyl)phenoxy]-5-[(1S)-2-methoxy-1-methylethoxy]phenyl}-1H-pyrrol-2-yl)-1,3-thiazole] | 2.0
COC[C@H](C)Oc1cc(Oc2cnc(S(C)(=O)=O)cn2)cc(-c2ccc(C3=NC[C@H](CO)O3)[nH]2)c1 [Example 101, {(5R)-2-[5-(3-[(1S)-2-Methoxy-1-methylethoxy]-5-{[5-(methylsulfonyl)pyrazin-2-yl]oxy}phenyl)-1H-pyrrol-2-yl]-4,5-dihydro-1,3-oxazol-5-yl}methanol] | 1.9
COC[C@H](C)Oc1cc(Oc2cnc(C(=O)N3CCN(C)CC3)cn2)cc(-c2ccc(-c3nccs3)[nH]2)c1 [Example 64, 2-{3-[(1S)-2-Methoxy-1-methylethoxy]-5-[5-(1,3-thiazol-2-yl)-1H-pyrrol-2-yl]phenoxy}-5-[(4-methylpiperazin-1-yl)carbonyl]pyrazine] | 1.9
COC[C@H](C)Oc1cc(Oc2ccc(S(C)(=O)=O)nc2)cc(-c2ccc(C3=N[C@H]([C@@H](C)O)CO3)[nH]2)c1 [Example 95, (1R)-1-{(4S)-2-[5-(3-[(1S)-2-Methoxy-1-methylethoxy]-5-{[6-(methylsulfonyl)pyridin-3-yl]oxy}phenyl)-1H-pyrrol-2-yl]-4,5-dihydro-1,3-oxazol-4-yl}ethanol] | 2.5
COC[C@H](C)Oc1cc(Oc2ccc(S(C)(=O)=O)nc2)cc(-c2ccc(C3=N[C@H]([C@H](C)O)CO3)[nH]2)c1 [Example 93, (1S)-1-{(4S)-2-[5-(3-[(1S)-2-Methoxy-1-methylethoxy]-5-{[6-(methylsulfonyl)pyridin-3-yl]oxy}phenyl)-1H-pyrrol-2-yl]-4,5-dihydro-1,3-oxazol-4-yl}ethanol] | 2.4
